Our source for the IC50 values is patent US20230391739A1, “ARYL DERIVATIVES FOR TREATING TRPM3 MEDIATED DISORDERS” (Katholieke Universiteit Leuven, priority 2020, published 2023).

The target in this assay is T1, mouse TRPM3α2 (mTRPM3) ion channel (Mus musculus, UniProt J9SQF3).
T1 construct: expressed in transfected cells; host or cells: flip-in HEK293
Nature of the assay: TRPM3 ion channel driven Ca2+ uptake, Fluo-4 AM assay, PS-stimulated (mTRPM3). In kind it is cell-based. The following applies: TRPM3 overexpressing flip-in HEK293 cells stimulated with Pregnenolone sulfate (PS) 50 μM, activity ranges A, B, C. As for the experimental part:
Monitoring the TRPM3 Ion Channel Driven Ca^2+ Uptake.
In order to monitor the inhibition of the mouse TRPM3α2 (mTRPM3) ion channel by the compounds of the invention, a cellular system making use of an mTRPM3alpha2 or hTRPM3 overexpressing cell line (flip-in HEK293) was used. The TRPM3 channel was stimulated/opened with Pregnenolone sulfate (PS) (50 μM) which results in Ca^2+ influx.
For mTRPM3, the intracellular Ca^2+ was measured with a Calcium responsive dye, Fluor-4 AM ester (Invitrogen). Cells were cultured until a confluence of 80-90%, washed with Versene (Invitrogen) and detached from the surface by a short incubation with 0.05% Trypsin (Invitrogen). The trypsination process was stopped by the addition of complete cell culture medium (DMEM, glutamax, 10% FCS, NEAA, Pen-Strep). Cells were collected and resuspended in Krebs buffer without Calcium at RT.
Prior the cell seeding (±2000 cells/well into a black, 384 well plate (Greiner)) the diluted compound was added in the assay plate, together with the PS dissolved in Krebs buffer containing Calcium. […] Directly after cell addition the plates were read on an Envision fluorescence reader (Perkin Elmer) by an Excitation of 485 nm and emission at 535 nm.
Channel inhibition was calculated compared to a non-PS stimulated control versus a condition stimulated with PS (50 μM) with vehicle. The ability of the compounds of the invention to inhibit this activity was determined as: Percentage inhibition=[1−((RFU determined for sample with test compound present−RFU determined for sample with positive control inhibitor) divided by (RFU determined in the presence of vehicle−RFU determined for sample with positive control inhibitor))]*100.
The activities of the Example compounds tested are depicted in the table below.

Some results are limits rather than exact numbers.

T1 sequence (J9SQF3 1-1709 isoform J9SQF3-12): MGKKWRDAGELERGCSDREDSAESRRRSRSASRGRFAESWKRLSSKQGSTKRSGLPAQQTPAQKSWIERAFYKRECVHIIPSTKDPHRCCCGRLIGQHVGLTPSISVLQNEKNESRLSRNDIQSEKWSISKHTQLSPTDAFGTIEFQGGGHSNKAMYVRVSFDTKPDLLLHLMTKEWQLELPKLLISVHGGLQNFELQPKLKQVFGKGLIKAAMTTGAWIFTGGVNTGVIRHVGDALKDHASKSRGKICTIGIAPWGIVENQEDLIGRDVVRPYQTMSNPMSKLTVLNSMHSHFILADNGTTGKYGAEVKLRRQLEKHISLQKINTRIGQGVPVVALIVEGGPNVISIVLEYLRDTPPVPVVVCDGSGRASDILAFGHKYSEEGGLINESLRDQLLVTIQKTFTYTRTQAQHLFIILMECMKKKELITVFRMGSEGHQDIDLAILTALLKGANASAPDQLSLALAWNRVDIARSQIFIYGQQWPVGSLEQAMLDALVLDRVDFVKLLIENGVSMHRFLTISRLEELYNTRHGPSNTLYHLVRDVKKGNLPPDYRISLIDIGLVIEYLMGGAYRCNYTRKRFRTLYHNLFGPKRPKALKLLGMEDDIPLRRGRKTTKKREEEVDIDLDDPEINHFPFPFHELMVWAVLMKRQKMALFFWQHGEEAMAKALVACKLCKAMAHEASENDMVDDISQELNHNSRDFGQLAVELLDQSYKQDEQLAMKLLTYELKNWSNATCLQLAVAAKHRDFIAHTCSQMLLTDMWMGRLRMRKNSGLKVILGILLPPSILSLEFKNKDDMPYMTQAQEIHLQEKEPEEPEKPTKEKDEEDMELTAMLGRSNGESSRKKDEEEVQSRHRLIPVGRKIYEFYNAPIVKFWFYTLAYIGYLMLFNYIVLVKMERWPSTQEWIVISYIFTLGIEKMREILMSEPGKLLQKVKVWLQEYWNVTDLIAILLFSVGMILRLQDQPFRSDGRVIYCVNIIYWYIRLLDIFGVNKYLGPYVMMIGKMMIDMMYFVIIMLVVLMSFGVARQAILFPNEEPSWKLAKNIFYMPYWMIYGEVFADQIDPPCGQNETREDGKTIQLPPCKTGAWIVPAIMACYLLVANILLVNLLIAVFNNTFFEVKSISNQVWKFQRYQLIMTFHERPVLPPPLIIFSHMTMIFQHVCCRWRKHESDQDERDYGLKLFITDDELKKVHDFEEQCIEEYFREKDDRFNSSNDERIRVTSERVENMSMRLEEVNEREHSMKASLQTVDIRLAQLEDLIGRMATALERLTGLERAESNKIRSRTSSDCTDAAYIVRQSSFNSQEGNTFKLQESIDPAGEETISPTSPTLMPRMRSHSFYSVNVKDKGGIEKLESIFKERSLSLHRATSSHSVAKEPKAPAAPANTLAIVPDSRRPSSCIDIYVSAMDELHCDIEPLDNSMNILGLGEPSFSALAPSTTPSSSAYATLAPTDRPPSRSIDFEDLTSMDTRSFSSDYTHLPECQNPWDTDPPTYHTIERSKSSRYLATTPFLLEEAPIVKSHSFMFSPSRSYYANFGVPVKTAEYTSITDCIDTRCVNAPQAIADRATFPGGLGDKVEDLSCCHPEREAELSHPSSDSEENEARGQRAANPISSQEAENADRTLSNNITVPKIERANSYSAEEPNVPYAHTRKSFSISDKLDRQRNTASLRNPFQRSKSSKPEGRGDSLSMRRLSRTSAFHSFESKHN

The molecule `Cc1cc2oc(C)c(C(=O)NC3CNCC3(F)F)c2cc1OCc1ccccc1` (single isomer, unassigned) [Cpd 303-En 1, 5-(benzyloxy)-N-(4,4-difluoropyrrolidin-3-yl)-2,6-dimethylbenzofuran-3-carboxamide] had an IC50 of 1000 to 20000 nM.

Regarding `Cc1cc2oc(C)c(C(=O)NC3CNCC3(F)F)c2cc1OCc1ccccc1` (single isomer, unassigned) [Cpd 303-En 2, 5-(benzyloxy)-N-(4,4-difluoropyrrolidin-3-yl)-2,6-dimethylbenzofuran-3-carboxamide], the IC50 was greater than 20000 nM.

As for `Cc1oc2c(Cl)cc(OCc3ccccc3)cc2c1C(=O)NC1CNCC1(F)F` (single isomer, unassigned) [Cpd 304-En 1, 5-(benzyloxy)-7-chloro-N-(4,4-difluoropyrrolidin-3-yl)-2-methylbenzofuran-3-carboxamide], the 50% inhibitory concentration (IC50) is 1000 to 20000 nM.

`Cc1oc2c(Cl)cc(OCc3ccccc3)cc2c1C(=O)NC1CNCC1(F)F` (single isomer, unassigned) [Cpd 304-En 2, 5-(benzyloxy)-7-chloro-N-(4,4-difluoropyrrolidin-3-yl)-2-methylbenzofuran-3-carboxamide] had an IC50 greater than 20000 nM.

Consider `Cc1oc2c(C#N)cc(OCc3ccccc3)cc2c1C(=O)NC1CNCC1(F)F` (single isomer, unassigned) [Cpd 305-En 1, 5-(benzyloxy)-7-cyano-N-(4,4-difluoropyrrolidin-3-yl)-2-methylbenzofuran-3-carboxamide], for which the half-maximal inhibitory concentration (IC50) is greater than 20000 nM.

Take `Cc1oc2c(C#N)cc(OCc3ccccc3)cc2c1C(=O)NC1CNCC1(F)F` (single isomer, unassigned) [Cpd 305-En 2, 5-(benzyloxy)-7-cyano-N-(4,4-difluoropyrrolidin-3-yl)-2-methylbenzofuran-3-carboxamide]: the half-inhibitory concentration (IC50) was greater than 20000 nM.

For the molecule `Cc1oc2c(F)cc(OCc3ccccc3)cc2c1C(=O)NC1CNCC1(F)F` (single isomer, unassigned) [Cpd 306-En 1], the IC50 was less than 1000 nM.

On to `Cc1oc2c(F)cc(OCc3ccccc3)cc2c1C(=O)NC1CNCC1(F)F` (single isomer, unassigned) [Cpd 306-En 2], for which the IC50 is 1000 to 20000 nM.

Molecule `Cc1oc2c(C)cc(OCc3ccccc3)cc2c1C(=O)NC1CNCC1(F)F` (single isomer, unassigned) [Cpd 307-En 1, 5-(benzyloxy)-N-(4,4-difluoropyrrolidin-3-yl)-2,7-dimethylbenzofuran-3-carboxamide] yielded an IC50 of 1000 to 20000 nM.

Consider `Cc1oc2c(C)cc(OCc3ccccc3)cc2c1C(=O)NC1CNCC1(F)F` (single isomer, unassigned) [Cpd 307-En 2, 5-(benzyloxy)-N-(4,4-difluoropyrrolidin-3-yl)-2,7-dimethylbenzofuran-3-carboxamide], for which the IC50 was greater than 20000 nM.

`Cc1oc2ccc(OC(C)c3ccccc3)cc2c1C(=O)NC1(CO)CCOCC1` (single isomer, unassigned) [Cpd 308-En 1, N-(4-(hydroxymethyl)tetrahydro-2H-pyran-4-yl)-2-methyl-5-(1-phenylethoxy)benzofuran-3-carboxamide] registered an IC50 of less than 1000 nM.

`Cc1oc2ccc(OC(C)c3ccccc3)cc2c1C(=O)NC1(CO)CCOCC1` (single isomer, unassigned) [Cpd 308-En 2, N-(4-(hydroxymethyl)tetrahydro-2H-pyran-4-yl)-2-methyl-5-(1-phenylethoxy)benzofuran-3-carboxamide] displayed an IC50 of less than 1000 nM.

`Cc1oc2ccc(OCc3ccccc3F)cc2c1C(=O)NC1CCN(CCO)C1=O` (single isomer, unassigned) [Cpd 311-En 1, 5-((2-Fluorobenzyl)oxy)-N-(1-(2-hydroxyethyl)-2-oxopyrrolidin-3-yl)-2-methylbenzofuran-3-carboxamide] displayed an IC50 of less than 1000 nM.

`Cc1oc2ccc(OCc3ccccc3F)cc2c1C(=O)NC1CCN(CCO)C1=O` (single isomer, unassigned) [Cpd 311-En 2, 5-((2-Fluorobenzyl)oxy)-N-(1-(2-hydroxyethyl)-2-oxopyrrolidin-3-yl)-2-methylbenzofuran-3-carboxamide] came in with an IC50 of less than 1000 nM.

`Cc1oc2ccc(OCc3ccccc3F)cc2c1C(=O)NC(CO)C(N)=O` (single isomer, unassigned) [Cpd 314-En 1] came in with an IC50 of less than 1000 nM.

For the molecule `Cc1oc2ccc(OCc3ccccc3F)cc2c1C(=O)NC(CO)C(N)=O` (single isomer, unassigned) [Cpd 314-En 2], the half-inhibitory concentration (IC50) was less than 1000 nM.

For the molecule `Cc1oc2ccc(OC(CO)c3ccccc3)cc2c1C(=O)NC1(CO)CCOCC1` (single isomer, unassigned) [Cpd 317-En 1, 5-(2-hydroxy-1-phenylethoxy)-N-(4-(hydroxymethyl)tetrahydro-2H-pyran-4-yl)-2-methylbenzofuran-3-carboxamide], the IC50 is less than 1000 nM.

Regarding `Cc1oc2ccc(OC(CO)c3ccccc3)cc2c1C(=O)NC1(CO)CCOCC1` (single isomer, unassigned) [Cpd 317-En 2, 5-(2-hydroxy-1-phenylethoxy)-N-(4-(hydroxymethyl)tetrahydro-2H-pyran-4-yl)-2-methylbenzofuran-3-carboxamide], the IC50 fell in the range of 1000 to 20000 nM.

On to `Cc1oc2ccc(COc3ccccc3F)cc2c1C(=O)NC(C)C(N)=O` (single isomer, unassigned) [Cpd 320-En 1], for which the IC50 is less than 1000 nM.

Turning to `Cc1oc2ccc(COc3ccccc3F)cc2c1C(=O)NC(C)C(N)=O` (single isomer, unassigned) [Cpd 320-En 2], the IC50 is less than 1000 nM.

The molecule `Cc1oc2ccc(COc3ccccc3F)cc2c1C(=O)NC(CO)C(N)=O` (single isomer, unassigned) [Cpd 321-En 1, N-(1-amino-3-hydroxy-1-oxopropan-2-yl)-5-((2-fluorophenoxy)methyl)-2-methylbenzofuran-3-carboxamide] showed an IC50 of 1000 to 20000 nM.

In turn, `Cc1oc2ccc(COc3ccccc3F)cc2c1C(=O)NC(CO)C(N)=O` (single isomer, unassigned) [Cpd 321-En 2, N-(1-amino-3-hydroxy-1-oxopropan-2-yl)-5-((2-fluorophenoxy)methyl)-2-methylbenzofuran-3-carboxamide] showed an IC50 of less than 1000 nM.

In the case of `Cc1oc2ccc(OCc3ccccc3F)cc2c1C(=O)NC1(C(N)=O)CCOC1` (single isomer, unassigned) [Cpd 323-En 1, N-(3-carbamoyltetrahydrofuran-3-yl)-5-((2-fluorobenzyl)oxy)-2-methylbenzofuran-3-carboxamide], the IC50 is less than 1000 nM.

With `Cc1oc2ccc(OCc3ccccc3F)cc2c1C(=O)NC1(C(N)=O)CCOC1` (single isomer, unassigned) [Cpd 323-En 2, N-(3-carbamoyltetrahydrofuran-3-yl)-5-((2-fluorobenzyl)oxy)-2-methylbenzofuran-3-carboxamide], the IC50 was less than 1000 nM.

The molecule `Cc1oc2ccc(OCc3ccccc3F)cc2c1C(=O)NC1(CO)CCOC1` (single isomer, unassigned) [Cpd 327-En 1, 5-((2-fluorobenzyl)oxy)-N-(3-(hydroxymethyl)tetrahydrofuran-3-yl)-2-methylbenzofuran-3-carboxamide] yielded an IC50 of less than 1000 nM.

`Cc1oc2ccc(OCc3ccccc3F)cc2c1C(=O)NC1(CO)CCOC1` (single isomer, unassigned) [Cpd 327-En 2, 5-((2-fluorobenzyl)oxy)-N-(3-(hydroxymethyl)tetrahydrofuran-3-yl)-2-methylbenzofuran-3-carboxamide] yielded an IC50 of less than 1000 nM.

Usually IC50 stands for the concentration needed to halve the response being measured.
